# Tests used:
# [1] = tested on: Hepatitis C virus NS3 protease; test: Inhibitory activity against Protease using replicon assay […] at 25 uM concentration; settings: Rattus norvegicus
# [2] = tested on: Hepatitis C virus NS3 protease; test: Cytotoxic activity against Protease in […] Huh-7 cells at 100 uM
# Huh-7 (Homo sapiens) = test: Cytotoxic activity against human hepatoma Huh-7 cells at 100 uM concentration
# Rattus norvegicus [3] = organism: Rattus norvegicus; test: Inhibitory activity against Protease using replicon assay […] at 25 uM concentration
# Rattus norvegicus [4] = test: In vivo concentration in rat liver exposure 0-8 hour after oral administration 50 mg/kg; assay type: ADME, organism-based; parameters: dose 50 mg/kg, route oral
# [5] = In vivo maximum concentration in rat plasma exposure after oral administration 50 mg/kg; assay type: ADME, organism-based; parameters: dose 50 mg/kg, route oral
# Rattus norvegicus [6] = test: In vivo area under curve in rat plasma exposure after oral administration 50 mg/kg; assay type: ADME, organism-based; parameters: dose 50 mg/kg, route oral
# [7] = In vivo concentration in rat liver exposure 8 hour after oral administration 50 mg/kg; assay type: ADME, organism-based; parameters: dose 50 mg/kg, route oral; settings: read-out: C
# [8] = In vivo concentration in rat plasma exposure at 8 hour after oral administration 50 mg/kg; assay type: ADME, organism-based; parameters: dose 50 mg/kg, route oral; settings: read-out: C
# [9] = target: Kallikrein-1 (Homo sapiens) (UniProt P06870); test: Inhibitory activity against kallikrein; settings: concentration not given here
# Kallikrein-1 (Homo sapiens), sequence (P06870 25-262 limits assumed): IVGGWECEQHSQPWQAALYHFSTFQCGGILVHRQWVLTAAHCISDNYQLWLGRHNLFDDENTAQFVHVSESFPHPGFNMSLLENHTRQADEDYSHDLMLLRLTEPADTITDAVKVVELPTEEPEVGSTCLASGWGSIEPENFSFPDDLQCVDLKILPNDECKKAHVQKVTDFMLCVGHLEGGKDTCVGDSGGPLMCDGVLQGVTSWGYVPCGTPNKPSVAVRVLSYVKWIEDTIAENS
# [10] = target: Prothrombin (Homo sapiens) (UniProt P00734); test: Inhibitory activity against thrombin; settings: concentration not given here
# [11] = target: Serine protease 1 (Homo sapiens) (UniProt P07477); test: Inhibitory activity against trypsin; settings: concentration not given here
# Serine protease 1 (Homo sapiens), sequence (P07477 whole entry): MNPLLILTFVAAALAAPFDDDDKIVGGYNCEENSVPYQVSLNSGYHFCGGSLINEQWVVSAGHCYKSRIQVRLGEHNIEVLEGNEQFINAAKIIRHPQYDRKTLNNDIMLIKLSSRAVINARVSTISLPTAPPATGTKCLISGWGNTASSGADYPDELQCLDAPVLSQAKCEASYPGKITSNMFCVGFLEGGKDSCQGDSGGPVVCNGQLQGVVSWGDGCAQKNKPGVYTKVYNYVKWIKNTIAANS
# [12] = target: Plasminogen (Rattus norvegicus) (UniProt Q01177); test: Inhibitory activity against plasmin; settings: concentration not given here
# Plasminogen (Rattus norvegicus), sequence (Q01177 97-581 limits assumed): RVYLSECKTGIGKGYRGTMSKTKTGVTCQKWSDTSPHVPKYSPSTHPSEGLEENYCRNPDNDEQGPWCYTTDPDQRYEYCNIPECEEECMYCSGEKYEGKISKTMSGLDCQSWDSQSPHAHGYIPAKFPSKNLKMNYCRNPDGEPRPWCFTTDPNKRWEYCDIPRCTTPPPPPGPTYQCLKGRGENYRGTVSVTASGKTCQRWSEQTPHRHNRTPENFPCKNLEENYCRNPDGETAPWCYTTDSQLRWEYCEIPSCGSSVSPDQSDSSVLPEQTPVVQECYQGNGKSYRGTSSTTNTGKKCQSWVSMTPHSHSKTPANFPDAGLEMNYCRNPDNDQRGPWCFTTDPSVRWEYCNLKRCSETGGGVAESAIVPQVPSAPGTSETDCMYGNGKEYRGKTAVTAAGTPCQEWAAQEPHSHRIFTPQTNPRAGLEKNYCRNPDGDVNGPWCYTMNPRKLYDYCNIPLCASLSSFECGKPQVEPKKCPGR
# Plasminogen (Rattus norvegicus), sequence (Q01177 582-812 limits assumed): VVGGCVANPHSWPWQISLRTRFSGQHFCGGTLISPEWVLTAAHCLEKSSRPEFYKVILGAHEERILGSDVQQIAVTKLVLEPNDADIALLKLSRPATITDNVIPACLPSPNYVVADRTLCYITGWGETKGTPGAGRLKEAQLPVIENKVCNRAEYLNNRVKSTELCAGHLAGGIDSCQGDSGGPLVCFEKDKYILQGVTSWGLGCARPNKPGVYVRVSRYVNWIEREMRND
structure (smiles),measurement,setting,value
CCCC(NC(=O)[C@@H]1[C@H]2CC[C@H](F)[C@H]2CN1C(=O)[C@@H](NC(=O)[C@@H](NC(=O)c1cnccn1)C(C)C)C(C)C)C(=O)C(=O)N[C@@H](Cc1ccccc1)C(=O)O (stereo not given in full),inhibition,[1],-8%
CCCC(NC(=O)[C@@H]1[C@H]2CC[C@H](F)[C@H]2CN1C(=O)[C@@H](NC(=O)[C@@H](NC(=O)c1cnccn1)C(C)C)C(C)C)C(=O)C(=O)NC1CC1 (stereo not given in full),inhibition,[1],84%
CCCC(NC(=O)[C@@H]1[C@H]2CC[C@H](F)[C@H]2CN1C(=O)[C@@H](NC(=O)[C@@H](NC(=O)c1cnccn1)C(C)C)C(C)C)C(=O)C(=O)N[C@@H](C)c1ccccc1 (stereo not given in full),inhibition,[2],33%
same,inhibition,[1],97%
CCCC(NC(=O)[C@@H]1[C@H]2CC[C@@H](OCOC)C2CN1C(=O)[C@@H](NC(=O)[C@@H](NC(=O)c1cnccn1)C(C)C)C(C)C)C(=O)C(=O)N[C@@H](C)c1ccccc1 (stereo not given in full),inhibition,[1],98%
CCCC(NC(=O)[C@@H]1[C@H]2CCC(F)(F)[C@H]2CN1C(=O)[C@@H](NC(=O)[C@@H](NC(=O)c1cnccn1)C(C)C)C(C)C)C(=O)C(=O)NC1CC1 (stereo not given in full),inhibition,[1],64%
CCCC(NC(=O)[C@@H]1[C@H]2CC=C[C@H]2CN1C(=O)[C@@H](NC(=O)[C@@H](NC(=O)c1cnccn1)C(C)C)C(C)C)C(=O)C(=O)N[C@@H](C)c1ccccc1 (stereo not given in full),inhibition,Huh-7 (Homo sapiens),33%
same,inhibition,[1],97%
CCCC(NC(=O)[C@@H]1[C@H]2CCC[C@H]2CN1C(=O)[C@@H](NC(=O)[C@@H](NC(=O)c1cnccn1)C(C)C)C(C)C)C(=O)C(=O)N[C@@H](C)c1ccccc1 (stereo not given in full),inhibition,Rattus norvegicus [3],97%
CCCC(NC(=O)[C@@H]1[C@H]2CC=C[C@H]2CN1C(=O)[C@@H](NC(=O)[C@@H](NC(=O)c1cnccn1)C(C)C)C(C)C)C(=O)C(=O)N[C@@H](C)CC (stereo not given in full),inhibition,[1],91%
CCCC(NC(=O)[C@@H]1[C@H]2CCC[C@H]2CN1C(=O)[C@@H](NC(=O)[C@@H](NC(=O)c1cnccn1)C(C)C)C(C)C)C(=O)C(=O)NC1CC1 (stereo not given in full),Caverage,Rattus norvegicus [4],6290 nM
same,Cmax,[5],2250 ng/mL
same,AUC,Rattus norvegicus [6],2.86 µg/h/mL
same,concentration at 8 h,[7],500 nM
same,concentration at 8 h,[8],10 ng/mL
same,inhibition,Rattus norvegicus [3],93%
same,inhibition,[9],0%
same,inhibition,[10],12%
same,inhibition,[11],0%
same,inhibition,[12],5%
